Results from paper PMC5649189, “Bioactivity Potential of Prunus spinosa L. Flower Extracts: Phytochemical Profiling, Cellular Safety, Pro-inflammatory Enzymes Inhibition and Protective Effects Against Oxidative Stress In Vitro” (Frontiers in Pharmacology, 2017).

Target: T1, lipoxygenase from soybean (LOX)
T1 construct: gene LOX1.1; such preparations are usually mainly lipoxygenase-1
Assay: lipoxygenase inhibition assay, 96-well plate reader
Type: biochemical, Glycine max
Details: substrate linoleic acid; positive control; μg of standard per mL of the enzyme solution
Description: lipoxygenase inhibition assay, 96-well plate reader on lipoxygenase from soybean (LOX)

Row | LOX / IC50 (μg/mL)^a | SMILES
1 | 166.83 ± 7.15 µg/mL | O=C(/C=C/c1ccc(O)c(O)c1)O[C@@H]1C[C@](O)(C(=O)O)C[C@@H](O)[C@H]1O [CHA, 5-O-Caffeoylquinic acid]
2 | 92.60 ± 3.71 µg/mL | COc1ccc2c(c1)c(CC(=O)O)c(C)n2C(=O)c1ccc(Cl)cc1 [IND, indomethacin]
3 | 89.23 ± 2.13 µg/mL | O=c1c(O)c(-c2ccc(O)c(O)c2)oc2cc(O)cc(O)c12 [QU, quercetin]
4 | 162.70 ± 3.70 µg/mL | C[C@@H]1O[C@@H](OC[C@H]2O[C@@H](Oc3c(-c4ccc(O)c(O)c4)oc4cc(O)cc(O)c4c3=O)[C@H](O)[C@@H](O)[C@@H]2O)[C@H](O)[C@H](O)[C@H]1O [RT, Quercetin 3-O-(6′′-O-α-L-rhamnopyranosyl)-β-D-glucopyranoside]
